# Data taken from ChEMBL document CHEMBL1201862, “PubChem BioAssay data set” (2004).
#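 Cells were grown in 96-well plates and exposed to each compound for 48 hours at five concentrations; endpoints were interpolated linearly between bracketing concentrations, or set to the highest concentration if not reached. The concentration for 50% growth inhibition is given as GI50.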 The source made the active and inactive calls. No stated cut-off is given here; in the data, active = GI50 up to about 1.1 µM and inactive = higher.
# Assays:
# Assay in all cases: NCI tumour cell line growth inhibition, 48 h
# CCRF-CEM = test system: CCRF-CEM
# HCT-116 = test system: HCT-116
# SF-539 = test system: SF-539
# UACC-62 = test system: UACC-62
# A498 = test system: A498
# HOP-92 = test system: HOP-92
# MDA-MB-435 = test system: MDA-MB-435
# U-251 = test system: U-251
# HCC 2998 = test system: HCC 2998
# SN12C = test system: SN12C
# NCI-H460 = test system: NCI-H460
# KM12 = test system: KM12
# IGROV-1 = test system: IGROV-1
# Hs-578T = test system: Hs-578T
# TK-10 = test system: TK-10
# 786-0 = test system: 786-0
# OVCAR-4 = test system: OVCAR-4
# SNB-75 = test system: SNB-75
# SNB-19 = test system: SNB-19
# OVCAR-8 = test system: OVCAR-8
# NCI-H522 = test system: NCI-H522
# EKVX = test system: EKVX
# MDA-MB-231 = test system: MDA-MB-231
# COLO 205 = test system: COLO 205
# MDA-N = test system: MDA-N
# NCI-H23 = test system: NCI-H23
# SK-OV-3 = test system: SK-OV-3
# HT-29 = test system: HT-29
# SF-295 = test system: SF-295
# NCI-H226 = test system: NCI-H226
# MOLT-4 = test system: MOLT-4
# Malme-3M = test system: Malme-3M
# UACC-257 = test system: UACC-257
# NCI/ADR-RES = test system: NCI/ADR-RES
# SK-MEL-2 = test system: SK-MEL-2
# OVCAR-5 = test system: OVCAR-5
# HCT-15 = test system: HCT-15
# SW-620 = test system: SW-620
# RXF 393 = test system: RXF 393
# PC-3 = test system: PC-3
# K562 = test system: K562
# SR = test system: SR
# SK-MEL-5 = test system: SK-MEL-5
# RPMI-8226 = test system: RPMI-8226
# SF-268 = test system: SF-268
# T47D = test system: T47D
# ACHN = test system: ACHN
# A549 = test system: A549
# HOP-62 = test system: HOP-62
# CAKI-1 = test system: CAKI-1
# DU-145 = test system: DU-145
# SK-MEL-28 = test system: SK-MEL-28
# UO-31 = test system: UO-31
# LOX IMVI = test system: LOX IMVI
# HL-60 = test system: HL-60
# OVCAR-3 = test system: OVCAR-3
# MCF7 = test system: MCF7
# M14 = test system: M14
smiles,measurement,setting,value
COc1ccc(N2C(=O)C(=O)N(c3ccccc3[N+](=O)[O-])C2=S)cc1,GI50,CCRF-CEM,81.7 µM (inactive)
same,GI50,HCT-116,28.6 µM (inactive)
same,GI50,SF-539,30.1 µM (inactive)
same,GI50,UACC-62,17.5 µM (inactive)
same,GI50,A498,27 µM (inactive)
same,GI50,HOP-92,19.6 µM (inactive)
same,GI50,MDA-MB-435,27.4 µM (inactive)
same,GI50,U-251,37.8 µM (inactive)
same,GI50,HCC 2998,36.1 µM (inactive)
same,GI50,SN12C,37.4 µM (inactive)
same,GI50,NCI-H460,34.3 µM (inactive)
same,GI50,KM12,22.3 µM (inactive)
same,GI50,IGROV-1,34.8 µM (inactive)
same,GI50,Hs-578T,22.7 µM (inactive)
same,GI50,TK-10,21.7 µM (inactive)
same,GI50,786-0,33 µM (inactive)
same,GI50,OVCAR-4,18.9 µM (inactive)
same,GI50,SNB-75,27.1 µM (inactive)
same,GI50,SNB-19,44.6 µM (inactive)
same,GI50,OVCAR-8,21.1 µM (inactive)
same,GI50,NCI-H522,10.7 µM (inactive)
same,GI50,EKVX,30.5 µM (inactive)
same,GI50,MDA-MB-231,20.4 µM (inactive)
same,GI50,COLO 205,19.4 µM (inactive)
same,GI50,MDA-N,27 µM (inactive)
same,GI50,NCI-H23,21 µM (inactive)
same,GI50,SK-OV-3,25.1 µM (inactive)
same,GI50,HT-29,33.8 µM (inactive)
same,GI50,SF-295,35.1 µM (inactive)
same,GI50,NCI-H226,28.2 µM (inactive)
same,GI50,MOLT-4,34.8 µM (inactive)
same,GI50,Malme-3M,36.8 µM (inactive)
same,GI50,UACC-257,17.1 µM (inactive)
same,GI50,NCI/ADR-RES,23.5 µM (inactive)
same,GI50,SK-MEL-2,14.6 µM (inactive)
same,GI50,OVCAR-5,22.4 µM (inactive)
same,GI50,HCT-15,18.2 µM
same,GI50,SW-620,37.9 µM (inactive)
same,GI50,RXF 393,18 µM (inactive)
same,GI50,PC-3,40.5 µM (inactive)
same,GI50,K562,32.1 µM (inactive)
same,GI50,SR,47.3 µM (inactive)
same,GI50,SK-MEL-5,17.6 µM (inactive)
same,GI50,RPMI-8226,30.5 µM (inactive)
same,GI50,SF-268,33.7 µM (inactive)
same,GI50,T47D,22.6 µM (inactive)
same,GI50,ACHN,28.4 µM (inactive)
same,GI50,A549,38.5 µM (inactive)
same,GI50,HOP-62,50 µM (inactive)
same,GI50,CAKI-1,40 µM (inactive)
same,GI50,DU-145,38.4 µM (inactive)
same,GI50,SK-MEL-28,33 µM (inactive)
same,GI50,UO-31,34 µM (inactive)
same,GI50,LOX IMVI,16.6 µM (inactive)
same,GI50,HL-60,46 µM (inactive)
N#CC(C#N)C1CN2CCC1CC2 (stereo unspecified),GI50,CCRF-CEM,> 100 µM (inactive)
same,GI50,HCT-116,> 100 µM (inactive)
same,GI50,SF-539,> 100 µM (inactive)
same,GI50,UACC-62,> 100 µM (inactive)
same,GI50,A498,> 100 µM (inactive)
same,GI50,MDA-MB-435,> 100 µM (inactive)
same,GI50,U-251,> 100 µM (inactive)
same,GI50,HCC 2998,> 100 µM (inactive)
same,GI50,SN12C,> 100 µM (inactive)
same,GI50,NCI-H460,> 100 µM (inactive)
same,GI50,KM12,> 100 µM (inactive)
same,GI50,IGROV-1,> 100 µM (inactive)
same,GI50,Hs-578T,> 100 µM (inactive)
same,GI50,TK-10,> 100 µM (inactive)
same,GI50,786-0,> 100 µM (inactive)
same,GI50,OVCAR-4,> 100 µM (inactive)
same,GI50,SNB-75,> 100 µM (inactive)
same,GI50,SNB-19,> 100 µM (inactive)
same,GI50,OVCAR-8,79.6 µM (inactive)
same,GI50,NCI-H522,> 100 µM (inactive)
same,GI50,EKVX,> 100 µM (inactive)
same,GI50,MDA-MB-231,> 100 µM (inactive)
same,GI50,COLO 205,> 100 µM (inactive)
same,GI50,MDA-N,> 100 µM (inactive)
same,GI50,NCI-H23,> 100 µM (inactive)
same,GI50,SK-OV-3,> 100 µM (inactive)
same,GI50,HT-29,> 100 µM (inactive)
same,GI50,SF-295,> 100 µM (inactive)
same,GI50,NCI-H226,> 100 µM (inactive)
same,GI50,MOLT-4,> 100 µM (inactive)
same,GI50,Malme-3M,> 100 µM (inactive)
same,GI50,UACC-257,> 100 µM (inactive)
same,GI50,NCI/ADR-RES,> 100 µM (inactive)
same,GI50,SK-MEL-2,> 100 µM (inactive)
same,GI50,OVCAR-3,> 100 µM (inactive)
same,GI50,OVCAR-5,> 100 µM (inactive)
same,GI50,HCT-15,> 100 µM
same,GI50,SW-620,> 100 µM (inactive)
same,GI50,RXF 393,90.4 µM (inactive)
same,GI50,PC-3,> 100 µM (inactive)
same,GI50,K562,> 100 µM (inactive)
same,GI50,SR,> 100 µM (inactive)
same,GI50,SK-MEL-5,> 100 µM (inactive)
same,GI50,MCF7,> 100 µM (inactive)
same,GI50,RPMI-8226,> 100 µM (inactive)
same,GI50,SF-268,> 100 µM (inactive)
same,GI50,T47D,> 100 µM (inactive)
same,GI50,M14,> 100 µM (inactive)
same,GI50,ACHN,> 100 µM (inactive)
same,GI50,A549,> 100 µM (inactive)
same,GI50,HOP-62,> 100 µM (inactive)
same,GI50,CAKI-1,> 100 µM (inactive)
same,GI50,DU-145,> 100 µM (inactive)
same,GI50,SK-MEL-28,> 100 µM (inactive)
same,GI50,UO-31,> 100 µM (inactive)
same,GI50,LOX IMVI,> 100 µM (inactive)
same,GI50,HL-60,> 100 µM (inactive)
Cc1ccc(N/N=C/C2=CC(C)(C)C(C#N)(C#N)C(O)=C2C#N)cc1,GI50,CCRF-CEM,24.5 µM (inactive)
same,GI50,HCT-116,35.4 µM (inactive)
same,GI50,SF-539,> 100 µM (inactive)
same,GI50,UACC-62,30.4 µM (inactive)
same,GI50,HOP-92,5.89 µM (inactive)
same,GI50,MDA-MB-435,62.5 µM (inactive)
same,GI50,HCC 2998,37.8 µM (inactive)
same,GI50,SN12C,> 100 µM (inactive)
same,GI50,NCI-H460,24.6 µM (inactive)
same,GI50,KM12,32.4 µM (inactive)
same,GI50,IGROV-1,21 µM (inactive)
same,GI50,Hs-578T,> 100 µM (inactive)
same,GI50,TK-10,99.5 µM (inactive)
same,GI50,786-0,66.4 µM (inactive)
same,GI50,OVCAR-4,96.8 µM (inactive)
same,GI50,SNB-75,45.5 µM (inactive)
same,GI50,SNB-19,86.5 µM (inactive)
same,GI50,OVCAR-8,38.4 µM (inactive)
same,GI50,NCI-H522,> 100 µM (inactive)
same,GI50,EKVX,61.1 µM (inactive)
same,GI50,MDA-MB-231,44.6 µM (inactive)
same,GI50,COLO 205,26.9 µM (inactive)
same,GI50,MDA-N,54.8 µM (inactive)
same,GI50,NCI-H23,39.4 µM (inactive)
same,GI50,SK-OV-3,58.2 µM (inactive)
same,GI50,HT-29,37.8 µM (inactive)
same,GI50,SF-295,69.3 µM (inactive)
same,GI50,NCI-H226,> 100 µM (inactive)
same,GI50,MOLT-4,30.5 µM (inactive)
same,GI50,Malme-3M,> 100 µM (inactive)
same,GI50,UACC-257,38.8 µM (inactive)
same,GI50,NCI/ADR-RES,56 µM (inactive)
same,GI50,OVCAR-3,36.6 µM (inactive)
same,GI50,OVCAR-5,> 100 µM (inactive)
same,GI50,SW-620,24.8 µM (inactive)
same,GI50,RXF 393,33.2 µM (inactive)
same,GI50,PC-3,7.23 µM (inactive)
same,GI50,K562,21.3 µM (inactive)
same,GI50,SR,14.3 µM (inactive)
same,GI50,SK-MEL-5,40.7 µM (inactive)
same,GI50,MCF7,> 100 µM (inactive)
same,GI50,RPMI-8226,22.2 µM (inactive)
same,GI50,SF-268,49 µM (inactive)
same,GI50,T47D,67.3 µM (inactive)
same,GI50,M14,49.4 µM (inactive)
same,GI50,ACHN,45.5 µM (inactive)
same,GI50,A549,36.5 µM (inactive)
same,GI50,HOP-62,78.3 µM (inactive)
same,GI50,CAKI-1,31.6 µM (inactive)
same,GI50,DU-145,66.7 µM (inactive)
same,GI50,SK-MEL-28,85.5 µM (inactive)
same,GI50,UO-31,37.7 µM (inactive)
same,GI50,LOX IMVI,65.8 µM (inactive)
same,GI50,HL-60,17.3 µM (inactive)
